Experimental data as given in ChEMBL document CHEMBL2417435, “The discovery of potent blockers of the canonical transient receptor channels, TRPC3 and TRPC6, based on an anilino-thiazole pharmacophore” (Bioorg Med Chem Lett, 2013).

Legend:
[1] = target: T1, Short transient receptor potential channel 6 (Homo sapiens, UniProt Q9Y210); experiment: Inhibition of human recombinant TRPC6 expressed in HEK293-MSRII cells assessed as carbachol-stimulated Ca2+/Na+ influx after 10 mins by FLIPR assay; format: cell-based
T1 sequence (Q9Y210 whole entry): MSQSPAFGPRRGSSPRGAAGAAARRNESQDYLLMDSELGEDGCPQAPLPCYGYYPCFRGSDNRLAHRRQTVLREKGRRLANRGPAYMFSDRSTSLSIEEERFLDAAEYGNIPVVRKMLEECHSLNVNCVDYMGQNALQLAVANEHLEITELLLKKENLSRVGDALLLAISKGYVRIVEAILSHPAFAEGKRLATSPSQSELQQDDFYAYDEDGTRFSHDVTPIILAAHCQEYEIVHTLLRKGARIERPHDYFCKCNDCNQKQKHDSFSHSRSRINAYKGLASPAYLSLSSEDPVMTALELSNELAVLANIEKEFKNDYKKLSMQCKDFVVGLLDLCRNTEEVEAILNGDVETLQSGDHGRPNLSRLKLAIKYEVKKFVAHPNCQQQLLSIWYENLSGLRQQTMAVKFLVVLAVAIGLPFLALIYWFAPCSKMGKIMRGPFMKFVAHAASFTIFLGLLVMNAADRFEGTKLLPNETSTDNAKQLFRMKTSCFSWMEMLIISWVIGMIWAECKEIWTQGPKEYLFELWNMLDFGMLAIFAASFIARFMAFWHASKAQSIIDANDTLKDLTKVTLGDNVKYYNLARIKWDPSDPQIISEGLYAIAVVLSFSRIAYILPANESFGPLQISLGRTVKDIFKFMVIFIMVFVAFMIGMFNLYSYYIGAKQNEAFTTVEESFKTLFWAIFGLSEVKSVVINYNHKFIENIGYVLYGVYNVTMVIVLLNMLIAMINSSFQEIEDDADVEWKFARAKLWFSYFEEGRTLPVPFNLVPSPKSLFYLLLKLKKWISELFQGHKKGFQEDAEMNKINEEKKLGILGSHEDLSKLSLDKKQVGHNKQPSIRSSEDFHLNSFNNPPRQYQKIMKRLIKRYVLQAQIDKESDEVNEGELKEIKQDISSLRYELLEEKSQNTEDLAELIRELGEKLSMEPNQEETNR

[2] = target: T2, Short transient receptor potential channel 3 (Homo sapiens, UniProt Q13507); experiment: Inhibition of human recombinant TRPC3 expressed in HEK293-MSRII cells assessed as carbachol-stimulated Ca2+/Na+ influx after 10 mins by FLIPR assay; format: cell-based
T2 sequence (Q13507 whole entry): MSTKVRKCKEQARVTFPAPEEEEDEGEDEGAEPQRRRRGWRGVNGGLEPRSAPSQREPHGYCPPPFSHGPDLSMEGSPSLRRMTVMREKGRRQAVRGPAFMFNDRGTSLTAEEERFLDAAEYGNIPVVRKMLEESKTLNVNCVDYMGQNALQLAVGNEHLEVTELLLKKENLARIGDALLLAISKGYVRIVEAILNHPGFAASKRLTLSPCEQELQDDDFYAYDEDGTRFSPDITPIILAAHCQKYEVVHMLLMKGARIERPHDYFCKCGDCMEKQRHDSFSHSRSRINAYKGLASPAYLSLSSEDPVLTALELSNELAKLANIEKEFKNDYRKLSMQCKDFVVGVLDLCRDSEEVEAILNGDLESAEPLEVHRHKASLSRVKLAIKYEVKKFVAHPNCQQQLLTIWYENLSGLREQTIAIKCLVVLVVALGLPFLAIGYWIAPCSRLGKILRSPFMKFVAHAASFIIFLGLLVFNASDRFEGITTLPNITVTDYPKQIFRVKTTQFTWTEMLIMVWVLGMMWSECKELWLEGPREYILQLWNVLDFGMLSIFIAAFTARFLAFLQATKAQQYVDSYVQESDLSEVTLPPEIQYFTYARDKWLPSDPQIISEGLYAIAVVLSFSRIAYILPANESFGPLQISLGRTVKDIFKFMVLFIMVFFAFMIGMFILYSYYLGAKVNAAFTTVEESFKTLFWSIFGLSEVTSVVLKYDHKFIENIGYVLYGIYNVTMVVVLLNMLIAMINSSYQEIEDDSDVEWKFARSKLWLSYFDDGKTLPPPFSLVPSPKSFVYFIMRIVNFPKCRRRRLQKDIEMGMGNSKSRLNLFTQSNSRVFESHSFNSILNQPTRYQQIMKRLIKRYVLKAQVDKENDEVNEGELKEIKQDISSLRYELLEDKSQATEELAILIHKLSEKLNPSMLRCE

[3] = target: Sodium channel protein type 5 subunit alpha (Homo sapiens, UniProt Q14524); experiment: Inhibition of NaV1.5 channel (unknown origin) by patch express-based electrophysiology assay
Sequence of Sodium channel protein type 5 subunit alpha (Q14524 whole entry): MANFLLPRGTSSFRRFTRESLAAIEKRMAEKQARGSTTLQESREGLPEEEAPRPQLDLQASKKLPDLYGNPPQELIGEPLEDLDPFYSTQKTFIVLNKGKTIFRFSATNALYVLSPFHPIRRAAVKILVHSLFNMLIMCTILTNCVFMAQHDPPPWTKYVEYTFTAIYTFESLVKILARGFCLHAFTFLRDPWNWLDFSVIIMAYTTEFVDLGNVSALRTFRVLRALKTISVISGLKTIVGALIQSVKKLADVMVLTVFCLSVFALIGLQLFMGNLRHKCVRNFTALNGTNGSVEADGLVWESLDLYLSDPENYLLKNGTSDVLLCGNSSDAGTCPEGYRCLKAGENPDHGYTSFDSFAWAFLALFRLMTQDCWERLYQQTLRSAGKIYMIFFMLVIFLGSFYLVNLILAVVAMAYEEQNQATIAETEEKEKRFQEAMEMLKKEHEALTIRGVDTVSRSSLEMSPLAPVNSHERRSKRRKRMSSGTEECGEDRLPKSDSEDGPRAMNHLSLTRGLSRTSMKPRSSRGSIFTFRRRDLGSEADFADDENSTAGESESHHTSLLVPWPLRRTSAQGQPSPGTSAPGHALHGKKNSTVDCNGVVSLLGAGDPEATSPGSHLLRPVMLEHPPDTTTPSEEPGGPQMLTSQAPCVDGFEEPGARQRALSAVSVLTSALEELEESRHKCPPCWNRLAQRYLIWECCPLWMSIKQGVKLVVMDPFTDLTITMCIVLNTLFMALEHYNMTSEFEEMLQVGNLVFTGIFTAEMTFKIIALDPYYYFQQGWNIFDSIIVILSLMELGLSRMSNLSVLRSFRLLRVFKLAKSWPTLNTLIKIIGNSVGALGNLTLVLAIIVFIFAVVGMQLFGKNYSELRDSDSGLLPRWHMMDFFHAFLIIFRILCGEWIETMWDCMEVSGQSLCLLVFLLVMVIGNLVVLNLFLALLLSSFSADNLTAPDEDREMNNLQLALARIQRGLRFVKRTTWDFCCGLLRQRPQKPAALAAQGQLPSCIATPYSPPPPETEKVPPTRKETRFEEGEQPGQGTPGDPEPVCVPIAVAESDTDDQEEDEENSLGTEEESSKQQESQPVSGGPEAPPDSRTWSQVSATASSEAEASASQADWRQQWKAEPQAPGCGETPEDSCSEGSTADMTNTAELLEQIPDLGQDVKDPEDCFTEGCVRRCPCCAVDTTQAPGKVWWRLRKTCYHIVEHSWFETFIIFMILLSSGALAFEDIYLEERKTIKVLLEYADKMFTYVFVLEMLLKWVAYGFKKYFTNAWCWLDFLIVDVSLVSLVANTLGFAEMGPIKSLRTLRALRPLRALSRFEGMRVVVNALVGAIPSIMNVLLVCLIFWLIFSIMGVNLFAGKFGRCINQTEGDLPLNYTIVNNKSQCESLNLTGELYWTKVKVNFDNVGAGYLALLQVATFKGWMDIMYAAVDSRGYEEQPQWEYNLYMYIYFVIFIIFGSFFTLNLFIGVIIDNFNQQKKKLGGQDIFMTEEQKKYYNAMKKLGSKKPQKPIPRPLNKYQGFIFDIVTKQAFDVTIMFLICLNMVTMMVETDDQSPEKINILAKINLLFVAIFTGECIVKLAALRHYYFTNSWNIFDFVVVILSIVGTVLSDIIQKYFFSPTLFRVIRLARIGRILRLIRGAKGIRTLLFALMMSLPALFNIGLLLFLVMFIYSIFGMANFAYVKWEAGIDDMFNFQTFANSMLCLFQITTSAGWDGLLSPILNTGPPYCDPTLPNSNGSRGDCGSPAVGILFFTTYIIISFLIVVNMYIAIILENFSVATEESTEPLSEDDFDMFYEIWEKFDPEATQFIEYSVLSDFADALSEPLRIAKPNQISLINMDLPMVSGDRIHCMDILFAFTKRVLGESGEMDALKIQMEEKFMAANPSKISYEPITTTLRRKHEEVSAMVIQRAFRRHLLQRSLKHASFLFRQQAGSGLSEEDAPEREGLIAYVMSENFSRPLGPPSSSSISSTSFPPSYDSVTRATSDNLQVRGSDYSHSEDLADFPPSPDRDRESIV

[4] = target: Transient receptor potential cation channel subfamily V member 4 (Homo sapiens, UniProt Q9HBA0); experiment: Inhibition of TRPV4 (unknown origin) by FLIPR assay
Sequence of Transient receptor potential cation channel subfamily V member 4 (Q9HBA0 whole entry): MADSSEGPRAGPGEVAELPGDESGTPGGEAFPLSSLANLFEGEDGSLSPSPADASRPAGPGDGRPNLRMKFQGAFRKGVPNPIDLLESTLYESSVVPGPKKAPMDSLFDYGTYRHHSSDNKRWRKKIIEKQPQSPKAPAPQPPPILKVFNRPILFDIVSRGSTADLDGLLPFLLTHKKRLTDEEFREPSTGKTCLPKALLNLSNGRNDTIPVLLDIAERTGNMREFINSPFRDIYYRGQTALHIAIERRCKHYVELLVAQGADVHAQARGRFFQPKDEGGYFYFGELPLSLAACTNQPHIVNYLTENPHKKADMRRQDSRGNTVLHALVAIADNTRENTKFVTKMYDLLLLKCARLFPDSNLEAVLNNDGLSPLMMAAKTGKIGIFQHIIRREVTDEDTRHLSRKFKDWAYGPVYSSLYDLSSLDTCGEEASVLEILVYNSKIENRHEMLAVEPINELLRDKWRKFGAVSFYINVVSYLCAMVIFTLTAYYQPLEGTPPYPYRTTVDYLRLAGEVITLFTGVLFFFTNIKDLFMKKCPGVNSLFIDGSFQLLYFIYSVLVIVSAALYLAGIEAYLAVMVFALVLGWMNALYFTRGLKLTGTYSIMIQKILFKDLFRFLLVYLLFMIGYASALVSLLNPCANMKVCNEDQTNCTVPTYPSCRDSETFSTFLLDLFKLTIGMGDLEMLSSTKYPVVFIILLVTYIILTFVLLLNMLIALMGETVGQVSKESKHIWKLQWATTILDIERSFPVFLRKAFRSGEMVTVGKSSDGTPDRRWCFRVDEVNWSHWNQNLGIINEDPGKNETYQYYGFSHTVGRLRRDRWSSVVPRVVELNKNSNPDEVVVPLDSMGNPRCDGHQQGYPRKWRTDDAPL

[5] = target: Voltage-dependent L-type calcium channel subunit alpha-1C (Homo sapiens, UniProt Q13936); experiment: Inhibition of CaV1.2 channel (unknown origin) by patch express-based electrophysiology assay
[6] = target: Transient receptor potential cation channel subfamily A member 1 (Homo sapiens, UniProt O75762); experiment: Inhibition of TRPA1 (unknown origin) by FLIPR assay
Sequence of Transient receptor potential cation channel subfamily A member 1 (O75762 whole entry): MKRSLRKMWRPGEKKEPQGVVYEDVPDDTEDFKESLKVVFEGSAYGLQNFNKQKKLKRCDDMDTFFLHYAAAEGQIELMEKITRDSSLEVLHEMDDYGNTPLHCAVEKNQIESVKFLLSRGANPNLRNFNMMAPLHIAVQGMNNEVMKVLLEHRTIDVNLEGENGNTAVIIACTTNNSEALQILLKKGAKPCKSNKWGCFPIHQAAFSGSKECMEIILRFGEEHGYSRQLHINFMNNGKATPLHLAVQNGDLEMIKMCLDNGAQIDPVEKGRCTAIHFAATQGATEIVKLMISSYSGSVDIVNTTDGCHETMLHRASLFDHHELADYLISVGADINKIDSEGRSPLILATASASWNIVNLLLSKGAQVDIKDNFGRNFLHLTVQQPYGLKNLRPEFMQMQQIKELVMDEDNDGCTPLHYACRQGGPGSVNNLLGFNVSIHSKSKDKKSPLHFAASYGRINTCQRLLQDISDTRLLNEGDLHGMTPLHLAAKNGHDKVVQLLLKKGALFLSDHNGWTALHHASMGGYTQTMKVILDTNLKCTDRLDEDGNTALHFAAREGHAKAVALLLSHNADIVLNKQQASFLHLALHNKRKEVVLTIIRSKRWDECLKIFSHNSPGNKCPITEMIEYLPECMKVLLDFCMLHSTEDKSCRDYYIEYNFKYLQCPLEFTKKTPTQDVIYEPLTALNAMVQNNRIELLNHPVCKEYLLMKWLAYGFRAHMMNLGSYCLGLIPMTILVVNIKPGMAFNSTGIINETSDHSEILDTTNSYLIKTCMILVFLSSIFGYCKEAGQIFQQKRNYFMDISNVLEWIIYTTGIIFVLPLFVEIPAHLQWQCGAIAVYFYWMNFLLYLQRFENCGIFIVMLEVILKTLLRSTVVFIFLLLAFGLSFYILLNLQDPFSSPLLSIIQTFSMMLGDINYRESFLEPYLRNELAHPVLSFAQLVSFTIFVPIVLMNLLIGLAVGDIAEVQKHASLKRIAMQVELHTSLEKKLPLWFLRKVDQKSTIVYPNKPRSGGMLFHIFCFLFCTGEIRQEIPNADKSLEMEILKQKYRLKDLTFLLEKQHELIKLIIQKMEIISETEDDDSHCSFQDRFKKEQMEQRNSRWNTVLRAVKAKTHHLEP

[7] = target: Transient receptor potential cation channel subfamily V member 1 (Homo sapiens, UniProt Q8NER1); experiment: Inhibition of TRPV1 (unknown origin) by FLIPR assay
Sequence of Transient receptor potential cation channel subfamily V member 1 (Q8NER1 whole entry): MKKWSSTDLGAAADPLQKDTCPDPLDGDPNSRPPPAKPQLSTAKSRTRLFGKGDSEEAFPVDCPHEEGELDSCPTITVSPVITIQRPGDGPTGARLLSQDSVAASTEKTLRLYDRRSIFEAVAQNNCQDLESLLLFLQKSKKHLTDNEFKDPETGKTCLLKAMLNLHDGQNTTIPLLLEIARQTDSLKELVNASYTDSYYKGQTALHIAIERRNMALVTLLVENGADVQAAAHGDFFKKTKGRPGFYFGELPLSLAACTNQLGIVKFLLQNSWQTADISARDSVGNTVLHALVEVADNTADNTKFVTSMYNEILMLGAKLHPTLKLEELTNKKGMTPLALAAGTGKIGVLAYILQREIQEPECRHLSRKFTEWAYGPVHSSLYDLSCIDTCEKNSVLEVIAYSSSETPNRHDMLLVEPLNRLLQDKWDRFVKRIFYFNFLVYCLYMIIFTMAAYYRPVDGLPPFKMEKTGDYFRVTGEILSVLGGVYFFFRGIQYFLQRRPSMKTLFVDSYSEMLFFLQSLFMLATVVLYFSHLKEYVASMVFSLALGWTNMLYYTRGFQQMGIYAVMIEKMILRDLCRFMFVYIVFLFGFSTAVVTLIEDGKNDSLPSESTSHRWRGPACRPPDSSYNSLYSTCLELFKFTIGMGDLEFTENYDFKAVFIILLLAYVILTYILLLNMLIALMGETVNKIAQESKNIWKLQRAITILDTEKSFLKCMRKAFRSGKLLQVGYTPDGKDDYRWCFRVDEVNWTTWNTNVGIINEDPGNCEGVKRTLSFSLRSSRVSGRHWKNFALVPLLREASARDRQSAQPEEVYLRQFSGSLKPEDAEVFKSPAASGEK

[8] = Oral bioavailability in rat at 0.82 mg/kg; format: ADME, organism-based; conditions: in vivo
[9] = Mean residence time in rat at 0.82 mg/kg, iv; format: ADME, organism-based; parameters: dose 0.82 mg/kg, route intravenous; conditions: in vivo
Rattus norvegicus [10] = experiment: Dose normalized AUC in rat at 0.82 mg/kg, iv; format: ADME, organism-based; parameters: dose 0.82 mg/kg, route intravenous; conditions: in vivo
[11] = Cmax in rat at 0.82 mg/kg, iv; format: ADME, organism-based; parameters: dose 0.82 mg/kg, route intravenous; conditions: in vivo
[12] = Clearance in rat at 0.82 mg/kg, iv; format: ADME, organism-based; parameters: dose 0.82 mg/kg, route intravenous; conditions: in vivo
[13] = target: Voltage-gated inwardly rectifying potassium channel KCNH2 (Homo sapiens, UniProt Q12809); experiment: Inhibition of human ERG channel by patch express-based electrophysiology assay
[14] = Oral bioavailability in rat at 1.04 mg/kg; format: ADME, organism-based; conditions: in vivo
Rattus norvegicus [15] = experiment: Dose normalized AUC in rat at 1.04 mg/kg, iv; format: ADME, organism-based; parameters: dose 1.04 mg/kg, route intravenous; conditions: in vivo
[16] = Clearance in rat at 1.04 mg/kg, iv; format: ADME, organism-based; parameters: dose 1.04 mg/kg, route intravenous; conditions: in vivo
[17] = Mean residence time in rat at 1.04 mg/kg, iv; format: ADME, organism-based; parameters: dose 1.04 mg/kg, route intravenous; conditions: in vivo
[18] = Cmax in rat at 1.04 mg/kg, iv; format: ADME, organism-based; parameters: dose 1.04 mg/kg, route intravenous; conditions: in vivo
Rattus norvegicus [19] = experiment: Volume of distribution at steady state in rat at 0.92 mg/kg, iv; format: ADME, organism-based; parameters: dose 0.92 mg/kg, route intravenous; conditions: in vivo
[20] = Oral bioavailability in rat at 0.92 mg/kg; format: ADME, organism-based; conditions: in vivo
Rattus norvegicus [21] = experiment: Dose normalized AUC in rat at 0.92 mg/kg, iv; format: ADME, organism-based; parameters: dose 0.92 mg/kg, route intravenous; conditions: in vivo
Rattus norvegicus [22] = experiment: Mean residence time in rat at 0.92 mg/kg, iv; format: ADME, organism-based; parameters: dose 0.92 mg/kg, route intravenous; conditions: in vivo
[23] = Cmax in rat at 0.92 mg/kg, iv; format: ADME, organism-based; parameters: dose 0.92 mg/kg, route intravenous; conditions: in vivo

Cc1ccc(Nc2nc(C(=O)N3CCCCC3C)cs2)cc1 (stereo not given)
IC50 [1]: 630 nM | IC50 [2]: 800 nM

Cc1sc(Nc2ccc(Cl)cc2F)nc1C(=O)N1CCC[C@H](C)[C@@H]1C
IC50 [3]: 3.3 µM | IC50 [4]: 12.5 µM | IC50 [5]: 10 µM | IC50 [6]: 25 µM | IC50 [7]: 6.3 µM | bioavailability [8]: 64% | MRT [9]: 42 min | AUC/dose (Rattus norvegicus [10]): 0.1 kg·L·h | Cmax [11]: 120 ng/mL | clearance [12]: 150 mL/min/kg | IC50 [1]: 16 nM | IC50 [2]: 100 nM

Cc1ccc(Nc2nc(C(=O)N3CCCC(C)C3C)cs2)cc1 (stereo not given)
IC50 [3]: 50 µM | IC50 [13]: > 50 µM | IC50 [4]: 6.3 µM | IC50 [5]: 10 µM | IC50 [6]: 8 µM | IC50 [7]: 1.26 µM | bioavailability [14]: < 1% | AUC/dose (Rattus norvegicus [15]): 0.2 kg·L·h | clearance [16]: 75 mL/min/kg | MRT [17]: 2.8 h | Cmax [18]: 310 ng/mL | IC50 [1]: 80 nM | IC50 [2]: 250 nM

CC1CCN(C(=O)c2csc(Nc3ccc4c(c3)OCO4)n2)CC1
IC50 [1]: 160 nM | IC50 [2]: 400 nM

O=C(c1csc(Nc2ccc3c(c2)OCO3)n1)N1CCc2ccccc2C1
IC50 [1]: 160 nM | IC50 [2]: 500 nM

Cc1ccc(Nc2nc(C(=O)N3CCCCC3c3ccccc3)cs2)cc1 (stereo not given)
IC50 [1]: 15800 nM | IC50 [2]: 12600 nM

CC1CCN(C(=O)c2csc(Nc3ccccc3Cl)n2)CC1
IC50 [1]: 3160 nM | IC50 [2]: 6300 nM

Cc1ccc(Nc2nc(C(=O)N3CCC(C4CCCCC4)CC3)cs2)cc1
IC50 [1]: 4000 nM | IC50 [2]: 6300 nM

Cc1ccc(Nc2nc(C(=O)N3CCCC(c4ccccc4)C3)cs2)cc1 (stereo not given)
IC50 [1]: > 25000 nM | IC50 [2]: > 25000 nM

Cc1sc(Nc2ccc(Cl)cc2F)nc1C(=O)N1CCc2ncccc2C1
Vdss (Rattus norvegicus [19]): 0.7 L/kg | bioavailability [20]: 100% | AUC/dose (Rattus norvegicus [21]): 0.85 kg·h/L | MRT (Rattus norvegicus [22]): 1.6 h | Cmax [23]: 510 ng/mL | IC50 [1]: 6300 nM | IC50 [2]: 20000 nM

COc1ccc(Nc2nc(C(=O)N3CCC(c4ccccc4)CC3)cs2)cc1
IC50 [1]: 1600 nM | IC50 [2]: 2500 nM

Cc1sc(Nc2ccc(Cl)cc2F)nc1C(=O)N1CCC[C@@H](C)[C@H]1C
IC50 [1]: 1600 nM | IC50 [2]: 1000 nM
